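Assay format: 96-well plates, 48-hour exposure. At the GI50, growth is halved.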 Active and inactive are the calls of the source. No stated cut-off is given here; in the data, active = GI50 up to about 1.1 µM and inactive = higher.
How the values were obtained:
Assay in all cases: NCI-60 cell line screen, 48 h
[1] = test system: ACHN
[2] = test system: CCRF-CEM
[3] = test system: COLO 205
[4] = test system: DMS-114
[5] = test system: HCT-116
[6] = test system: HL-60
[7] = test system: HOP-62
[8] = test system: HOP-92
[9] = test system: HT-29
[10] = test system: IGROV-1
[11] = test system: K562
[12] = test system: KM-20L2
[13] = test system: KM12
[14] = test system: LXFL 529
[15] = test system: M14
[16] = test system: M19-MEL
[17] = test system: MOLT-4
[18] = test system: Malme-3M
[19] = test system: NCI-H23
[20] = test system: NCI-H460
[21] = test system: NCI-H522
[22] = test system: OVCAR-3
[23] = test system: OVCAR-4
[24] = test system: OVCAR-5
[25] = test system: RPMI-8226
[26] = test system: RXF 393
[27] = test system: SF-268
[28] = test system: SF-295
[29] = test system: SF-539
[30] = test system: SK-MEL-28
[31] = test system: SK-MEL-2
[32] = test system: SK-OV-3
[33] = test system: SNB-19
[34] = test system: SNB-75
[35] = test system: SNB-78
[36] = test system: SR
[37] = test system: U-251
[38] = test system: UACC-257
[39] = test system: UACC-62
[40] = test system: UO-31
[41] = test system: 786-0
[42] = test system: A498
[43] = test system: A549
[44] = test system: BT-549
[45] = test system: CAKI-1
[46] = test system: DU-145
[47] = test system: EKVX
[48] = test system: HCC 2998
[49] = test system: HCT-15
[50] = test system: Hs-578T
[51] = test system: LOX IMVI
[52] = test system: MCF7
[53] = test system: MDA-MB-231
[54] = test system: MDA-MB-435
[55] = test system: MDA-N
[56] = test system: NCI-H226
[57] = test system: NCI/ADR-RES
[58] = test system: OVCAR-8
[59] = test system: PC-3
[60] = test system: SK-MEL-5
[61] = test system: SN12C
[62] = test system: SW-620
[63] = test system: T47D
[64] = test system: TK-10

`COC(=O)C(Cc1ccccc1)/N=C/c1c(O)c(O)c(C(C)C)c2cc(C)c(-c3c(C)cc4c(C(C)C)c(O)c(O)c(/C=N/C(Cc5ccccc5)C(=O)OC)c4c3O)c(O)c12` (centres undefined) was tested, and the GI50 [1] was 32.1 µM (inactive), the GI50 [2] was 7.82 µM (inactive) and the GI50 [3] was 30.3 µM (inactive). The GI50 [4] was > 10 µM (inactive), the GI50 [5] was > 10 µM (inactive) and the GI50 [6] was 18.9 µM (inactive). The GI50 [7] was 31.8 µM (inactive), the GI50 [8] was 23.8 µM (inactive) and the GI50 [9] was 17.6 µM (inactive). For the same compound, the GI50 [10] was 28.7 µM (inactive), the GI50 [11] was 18.7 µM (inactive) and the GI50 [12] was 20 µM (inactive). The GI50 [13] was 16.1 µM (inactive), the GI50 [14] was 18 µM (inactive) and the GI50 [15] was > 10 µM (inactive). For the same compound, the GI50 [16] was 36.8 µM (inactive), the GI50 [17] was 2.38 µM (inactive) and the GI50 [18] was 40.6 µM (inactive). For the same compound, the GI50 [19] was 26.4 µM (inactive), the GI50 [20] was 23 µM (inactive) and the GI50 [21] was 21.6 µM (inactive). The GI50 [22] was 17 µM (inactive), the GI50 [23] was 21.3 µM (inactive) and the GI50 [24] was 15.5 µM (inactive). For the same compound, the GI50 [25] was 22.4 µM (inactive), the GI50 [26] was 15 µM (inactive) and the GI50 [27] was 29.5 µM (inactive). For the same compound, the GI50 [28] was 15.8 µM (inactive), the GI50 [29] was 17 µM (inactive) and the GI50 [30] was 28.8 µM (inactive). For the same compound, the GI50 [31] was 20.9 µM (inactive), the GI50 [32] was 23.7 µM (inactive) and the GI50 [33] was 31.8 µM (inactive). For the same compound, the GI50 [34] was 67.9 µM (inactive), the GI50 [35] was 6.21 µM (inactive) and the GI50 [36] was 2.36 µM (inactive). For the same compound, the GI50 [37] was 17.3 µM (inactive), the GI50 [38] was 21.6 µM (inactive) and the GI50 [39] was 22.5 µM (inactive). The GI50 [40] was 22.3 µM (inactive).
For `FC(F)(F)C1(C(F)(F)F)O[Si]2(OC(C(F)(F)F)(C(F)(F)F)c3ccccc32)c2ccccc21`, the GI50 [41] was 12.7 µM (inactive), the GI50 [42] was 13.7 µM (inactive) and the GI50 [43] was 13.5 µM (inactive). For the same compound, the GI50 [1] was 12 µM (inactive), the GI50 [44] was 14.5 µM (inactive) and the GI50 [45] was 19.1 µM (inactive). For the same compound, the GI50 [2] was 10.5 µM (inactive), the GI50 [3] was 14.8 µM (inactive) and the GI50 [46] was 15.4 µM (inactive). For the same compound, the GI50 [47] was 15 µM (inactive), the GI50 [48] was 13.7 µM (inactive) and the GI50 [5] was 5.45 µM (inactive). The GI50 [49] was 17 µM, the GI50 [6] was 13.6 µM (inactive) and the GI50 [7] was 8.67 µM (inactive). The GI50 [8] was 3.69 µM (inactive), the GI50 [9] was 7.62 µM (inactive) and the GI50 [50] was 11.9 µM (inactive). The GI50 [10] was 16.3 µM (inactive), the GI50 [11] was 10.3 µM (inactive) and the GI50 [13] was 17.1 µM (inactive). For the same compound, the GI50 [51] was 9.44 µM (inactive), the GI50 [15] was 13.2 µM (inactive) and the GI50 [52] was 14.4 µM (inactive). The GI50 [53] was 8.24 µM (inactive), the GI50 [54] was 11.3 µM (inactive) and the GI50 [55] was 13.4 µM (inactive). For the same compound, the GI50 [17] was 14.4 µM (inactive), the GI50 [18] was 9.46 µM (inactive) and the GI50 [56] was 4.53 µM (inactive). For the same compound, the GI50 [19] was 10.6 µM (inactive), the GI50 [20] was 5.98 µM (inactive) and the GI50 [21] was 7.53 µM (inactive). For the same compound, the GI50 [57] was 6.58 µM (inactive), the GI50 [22] was 16.5 µM (inactive) and the GI50 [23] was 11.4 µM (inactive). The GI50 [24] was 14.5 µM (inactive), the GI50 [58] was 8.75 µM (inactive) and the GI50 [59] was 6.27 µM (inactive). The GI50 [25] was 17.2 µM (inactive), the GI50 [26] was 13.6 µM (inactive) and the GI50 [27] was 15.6 µM (inactive). For the same compound, the GI50 [28] was 5.2 µM (inactive), the GI50 [29] was 10.2 µM (inactive) and the GI50 [30] was 12 µM (inactive). For the same compound, the GI50 [31] was 7.66 µM (inactive), the GI50 [60] was 15.5 µM (inactive) and the GI50 [32] was 15.8 µM (inactive). For the same compound, the GI50 [61] was 9.02 µM (inactive), the GI50 [33] was 9.57 µM (inactive) and the GI50 [34] was 14.6 µM (inactive). For the same compound, the GI50 [36] was 9.95 µM (inactive), the GI50 [62] was 17.1 µM (inactive) and the GI50 [63] was 9.95 µM (inactive). The GI50 [64] was 17.4 µM (inactive), the GI50 [37] was 3.95 µM (inactive) and the GI50 [38] was 18 µM (inactive). For the same compound, the GI50 [39] was 5.55 µM (inactive) and the GI50 [40] was 9.12 µM (inactive).

— ChEMBL document CHEMBL1201862, “PubChem BioAssay data set” (2004)
